# Reference: patent publication US20210015884A1 (priority 2018, published 2021)
# pIC50: −log10 of the molar value.
# What was measured:
# [1] = tested on: m^6A methylation in viral RNA; type: cell-based, influenza A virus
# [2] = tested on: IVA/PC virus; test: microbe, parasite or virus in culture; type: cell-based; settings: Influenza A virus, MDCK, read-out: IC50 of Zanamivir
# [3] = tested on: IVA/PC virus; type: cell-based, influenza A virus
compound,measurement,setting,value
5′ GGACUGGACUGGACUGGACU 3′ (chemistry not given here) [Target],m^6A methylation in corresponding viral RNA,[1],concomitant decrease
CC(=O)N[C@H]1[C@H]([C@H](O)[C@H](O)CO)OC(C(=O)O)=C[C@@H]1N=C(N)N [Zanamivir],pIC50,[2],8.70
"Cc1ccc(Cl)c(Nc2ccccc2C(=O)O)c1Cl [MA, meclofenamic acid]",effect on viral resistance to Zanamivir,[3],potentiates viral resistance to Zanamivir
